# Laboratory results reported in patent US20140249135A1, “PIM KINASE INHIBITORS AND METHODS OF THEIR USE” (NOVARTIS AG, priority 2007, published 2014).
# Read-outs that look alike come from different tables or passages of the source.
# Columns and labels:
# Format in all cases: biochemical
# [1] = target: Pim2 kinase (Homo sapiens, UniProt Q9P1W9); experiment: Pim2 ATP depletion assay;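 also: Luciferase-based luminescent readout of ATP remaining after PIM2 phosphorylates a BAD peptide, final 5 nM enzyme, 4 µM ATP, 10 µM peptide, 2.5% DMSO, run to roughly half ATP consumption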
# Chain of Pim2 kinase (Q9P1W9 whole entry): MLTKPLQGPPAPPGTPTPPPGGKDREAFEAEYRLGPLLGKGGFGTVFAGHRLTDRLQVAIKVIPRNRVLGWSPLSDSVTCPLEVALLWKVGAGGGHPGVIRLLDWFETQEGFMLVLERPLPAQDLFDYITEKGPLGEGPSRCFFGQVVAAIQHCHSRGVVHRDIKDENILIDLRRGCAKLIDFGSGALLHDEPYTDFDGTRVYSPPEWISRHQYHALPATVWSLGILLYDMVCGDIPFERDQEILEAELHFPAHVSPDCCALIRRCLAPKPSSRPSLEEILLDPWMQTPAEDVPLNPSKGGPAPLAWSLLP
# [2] = target: Pim1 kinase (Homo sapiens, UniProt P11309); experiment: Pim1 ATP depletion assay; conditions: Pim1 ATP depletion assay;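 also: Luciferase-luciferin luminescence readout of residual ATP after PIM1 transfers phosphate to a peptide substrate, 40 µM ATP added, reaction run to roughly half ATP consumption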
# Chain of Pim1 kinase (P11309 whole entry): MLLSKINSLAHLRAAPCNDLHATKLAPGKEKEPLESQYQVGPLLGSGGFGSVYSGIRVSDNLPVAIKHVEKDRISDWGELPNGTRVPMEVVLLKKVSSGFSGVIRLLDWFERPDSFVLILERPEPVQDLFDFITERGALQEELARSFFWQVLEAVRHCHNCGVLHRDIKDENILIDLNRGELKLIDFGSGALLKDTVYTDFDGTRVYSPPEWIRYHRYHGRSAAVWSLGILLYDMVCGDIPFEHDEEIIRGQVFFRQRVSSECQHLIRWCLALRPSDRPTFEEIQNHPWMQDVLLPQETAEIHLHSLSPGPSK
# [3] = target: Pim3 kinase (Homo sapiens, UniProt Q86V86); experiment: Pim3 ATP depletion assay
SMILES,IC50 ([1]; read-out: IC50 (μM) PIM2) [µM],IC50 ([2]; read-out: IC50 (μM) PIM1) [µM],IC50 ([3]; read-out: IC50 (μM) PIM3) [µM],IC50 ([1]; read-out: PIM2 IC50) [µM],IC50 ([2]; read-out: PIM1 IC50) [µM],IC50 ([3]; read-out: PIM3 IC50) [µM]
"Cc1ccc(S(=O)(=O)N2CCCCC2)cc1-c1ccc(N)c(C(=O)Nc2cnccc2N2CCC[C@H](N)C2)n1 [Example 318, 3-amino-6-[2-methyl-5-(piperidine-1-sulfonyl)-phenyl]-pyridine-2-carboxylic acid ((S)-3-amino-3,4,5,6-tetrahydro-2H-[1,4′]bi-pyridinyl-3′-yl)-amide]",< 1,< 1,< 1,,,
"Nc1ccc(-c2cncnc2)nc1C(=O)Nc1cnccc1N1CCC[C@H](N)C1 [Example 407, 3-amino-6-pyrimidin-5-yl-pyridine-2-carboxylic acid ((S)-3-amino-3,4,5,6-tetrahydro-2H-[1,4′]bipyridinyl-3′-yl)-amide]",< 1,< 1,< 1,,,
"Nc1ccc(C2CCCCC2)nc1C(=O)Nc1cnccc1N1C[C@@H](N)C[C@@H](F)C1 [Example 284, 3-Amino-6-cyclohexyl-pyridine-2-carboxylic acid (3-amino-5-fluoro-3,4,5,6-tetrahydro-2H-[1,4′]bipyridinyl-3′-yl)-amide]",< 1,< 1,< 1,,,
"Nc1cnc(-c2ccccc2F)nc1C(=O)Nc1cnccc1N1C[C@H](N)C[C@H](N)C1 [Example 247, 5-Amino-2-(2-fluoro-phenyl)-pyrimidine-4-carboxylic acid (3,5-diamino-3,4,5,6-tetrahydro-2H-[1,4′]bipyridinyl-3′-yl)-amide]",< 1,< 1,< 1,,,
"Cc1ccncc1-c1ccc(N)c(C(=O)Nc2cnccc2N2CCC[C@H](N)C2)n1 [Example 472, 5-Amino-4′-methyl-[2,3′]bi-pyridinyl-6-carboxylic acid (3-amino-3,4,5,6-tetrahydro-2H-[1,4′]bipyridinyl-3′-yl)-amide]",< 1,< 1,< 1,,,
"CC(=O)c1ccc(N2CCC(N)CC2)c(NC(=O)c2nccnc2N)c1 [Example 220, N-[5-acetyl-2-(4-aminopiperidin-1-yl)phenyl]-3-aminopyrazine-2-carboxamide]",10 to 25,< 1,< 1,,,
"Nc1ccc(-c2cccc(S(N)(=O)=O)c2)nc1C(=O)Nc1cnccc1N1CCC[C@H](N)C1 [Example 481, 3-Amino-6-(3-sulfamoyl-phenyl)-pyridine-2-carboxylic acid (3-amino-3,4,5,6-tetrahydro-2H-[1,4′]bipyridinyl-3′-yl)-amide]",< 1,< 1,< 1,,,
"N#CCc1cccc(-c2ccc(N)c(C(=O)Nc3cnccc3N3CCC[C@H](N)C3)n2)c1 [Example 457, 3-Amino-6-(3-cyanomethyl-phenyl)-pyridine-2-carboxylic acid (3-amino-3,4,5,6-tetrahydro-2H-[1,4′]bipyridinyl-3′-yl)-amide]",< 1,< 1,< 1,,,
"NC1CC(C(F)(F)F)CN(c2ccncc2NC(=O)c2nc(-c3ccccc3F)ccc2F)C1 (stereo not drawn) [Example 280, 3-Fluoro-6-(2-fluoro-phenyl)-pyridine-2-carboxylic acid (3-amino-5-trifluoromethyl-3,4,5,6-tetrahydro-2H-[1,4′]bipyridinyl-3′-yl)-amide]",< 1,< 1,< 1,,,
"CCc1cccc(-c2ccc(N)c(C(=O)Nc3cnccc3N3CCC[C@H](N)C3)n2)c1 [Example 452, 3-Amino-6-(3-ethyl-phenyl)-pyridine-2-carboxylic acid (3-amino-3,4,5,6-tetrahydro-2H-[1,4′]bipyridinyl-3′-yl)-amide]",< 1,< 1,< 1,,,

# Now from value to molecule:
IC50 ([1]; read-out: IC50 (μM) PIM2) [µM],IC50 ([2]; read-out: IC50 (μM) PIM1) [µM],IC50 ([3]; read-out: IC50 (μM) PIM3) [µM],IC50 ([1]; read-out: PIM2 IC50) [µM],IC50 ([2]; read-out: PIM1 IC50) [µM],IC50 ([3]; read-out: PIM3 IC50) [µM],SMILES
,,,< 1,< 1,< 1,"N#Cc1ccc(-c2ccc(N)c(C(=O)Nc3cnccc3N3CCC[C@H](N)C3)n2)c(F)c1 [Example 686, 3-Amino-6-(4-cyano-2-fluoro-phenyl)-pyridine-2-carboxylic acid (3-amino-3,4,5,6-tetra-hydro-2H-[1,4′]bipyridinyl-3′-yl)-amide]"
,,,< 1,< 1,< 1,"CC(C)NC(=O)c1ccc(F)c(-c2ccc(N)c(C(=O)Nc3cnccc3N3CCCC(C)(N)C3)n2)c1 (stereo not drawn) [Example 675, 3-Amino-6-(2-fluoro-5-isopropylcarbamoyl-phenyl)-pyridine-2-carboxylic acid (3-amino-3-methyl-3,4,5,6-tetra-hydro-2H-[1,4′]bipyridinyl-3′-yl)-amide]"
,,,< 1,< 1,< 1,"Cc1ccnc(-c2ccc(N)c(C(=O)Nc3cnccc3N3CCC[C@H](N)C3)n2)c1 [Example 724, 5-Amino-4′-methyl-[2,2′]bi-pyridinyl-6-carboxylic acid (3-amino-3,4,5,6-tetrahydro-2H-[1,4′]bipyridinyl-3′-yl)-amide]"
< 1,< 1,< 1,,,,"Nc1cc(-c2ccncc2NC(=O)c2cccc(-c3ccc(F)cc3F)n2)nc(C(F)(F)F)n1 [Example 527, 6-(2,4-Difluoro-phenyl)-pyridine-2-carboxylic acid [4-(6-amino-2-trifluoromethyl-pyrimidin-4-yl)-pyridin-3-yl]-amide]"
,,,1 to 10,< 1,1 to 10,"Nc1ncc(Br)nc1C(=O)Nc1cnccc1N1CCCC(N(Cc2ccccc2)Cc2ccccc2)C1 (stereo not drawn) [Example 599, 3-amino-6-bromo-pyrazine-2-carboxylic acid (3-dibenzylamino-3,4,5,6-tetrahydro-2H-[1,4′]bi-pyridinyl-3′-yl)-amide]"
< 1,< 1,< 1,,,,"COc1ccc(F)cc1-c1nc(C(=O)Nc2cnccc2N2CCC[C@H](N)C2)c(N)cc1F [Example 501, 3-Amino-5-fluoro-6-(5-fluoro-2-methoxy-phenyl)-pyridine-2-carboxylic acid (3-amino-3,4,5,6-tetrahydro-2H-[1,4′]bipyridinyl-3′-yl)-amide]"
< 1,< 1,< 1,,,,"Cc1cscc1-c1ccc(N)c(C(=O)Nc2cnccc2N2CCC[C@H](N)C2)n1 [Example 489, 3-Amino-6-(4-methyl-thiophen-3-yl)-pyridine-2-carboxylic acid (3-amino-3,4,5,6-tetrahydro-2H-[1,4′]bipyridinyl-3′-yl)-amide]"
,,,< 1,< 1,< 1,"CC(C)NC(=O)c1ccc(F)c(-c2ccc(N)c(C(=O)Nc3cnccc3N3CC[C@@H](O)[C@H](N)C3)n2)c1 [Example 671, 3-Amino-6-(2-fluoro-5-isopropylcarbamoyl-phenyl)-pyridine-2-carboxylic acid (3-amino-4-hydroxy-3,4,5,6-tetra-hydro-2H-[1,4′]bipyridinyl-3′-yl)-amide]"
,,,< 1,< 1,< 1,"Nc1ccc(-c2cccc(C(F)(F)F)n2)nc1C(=O)Nc1cnccc1N1CCC[C@H](N)C1 [Example 718, 5-Amino-6′-trifluoromethyl-[2,2′]bipyridinyl-6-carboxylic acid (3-amino-3,4,5,6-tetra-hydro-2H-[1,4′]bipyridinyl-3′-yl)-amide]"
,,,< 1,< 1,< 1,"Nc1nccc(-c2ccncc2NC(=O)c2nc(-c3c(F)cccc3F)ccc2N)n1 [Example 628, 3-amino-N-[4-(2-aminopyrimidin-4-yl)pyridin-3-yl]-6-(2,6-difluorophenyl)pyridine-2-carboxamide]"
